Test system: 317291-083-R-J1-PDC complex spheroids, viability
Test: Anticancer human tumor 317291-083-R-J1-PDC patient-derived soft tissue sarcoma cell line growth inhibition [GQUAD]
Conditions: for IC50: curve of first compound; for viability, T/C: stronger effect = lower value
From the text: DNA G-quadruplex Stabilizer Agents in Combinations in Complex Spheroids
A high-throughput screen of multi-cell type tumor spheroids was designed to identify active combinations of DNA G-quadruplex stabilizer agents and targeted small molecules. Complex spheroids include a stromal component modeled by human endothelial cells (HUVEC) and fibroblasts modeled by human mesenchymal stem cells (MSCs). The concentration ranges selected for each drug and investigational agent were based upon clinically achievable concentrations if the clinical Cmax of the agent was known.
Compounds. The drugs and investigational agents: pidnarulex (CX-5461; NSC782164), APTO-253 (NSC789042), BRACO-19 (NSC847499), peposertib (NSC802822), ceralasertib (NSC780249), elimusertib (NSC800525), camonsertib (NSC841442), AZD-1390 (NSC803789), olaparib (NSC753686), talazoparib (NSC767125), ART-558 (NSC835418), sotorasib (NSC818433), MRTX-1133 (NSC836407), SN-38 (NSC673596), topotecan (NSC609699), etoposide (NSC141540), doxorubicin (NSC123127), gemcitabine (NSC613327), 5-fluorouracil (NSC19893), paclitaxel (NSC125973), vemurafenib (NSC761431), panobinostat (NSC761190), R-306465 (JNJ-16241199; NSC773264), adavosertib (NSC754352), TP-3654 (NSC805149), carboplatin (NSC241240), KSQ-4279 (NSC840948), and staurosporine (NSC755774) were obtained from the National Cancer Institute (NCI) Developmental Therapeutics Program Chemical Repository (34). The FDA-approved anticancer drug set is available from the NCI Developmental Therapeutics Program. […] The stock solutions were prepared in dimethyl sulfoxide (DMSO, Sigma-Aldrich, St. Louis, MO, cat. D2650) at 800-fold the tested concentration and stored at -70 degrees C prior to their use. All drugs and investigational agents were tested over a range starting from a high concentration at or near the clinical Cmax and decreasing in half-log increments. If the clinical Cmax for an agent had not been determined, the highest concentration tested was 10 microM.
2.3 Cell Culture. All cells were maintained in an incubator at 37 degrees C and 5% CO2 with 95% humidity. The PDC lines were cultured according to standard operating procedures established by the NCI PDMR. All PDCs were thawed and cultured in Matrigel-coated flasks prepared with a working solution of 1X Ham's F-12 nutrient mix, without supplementation (Invitrogen, cat. 11765054), 100 U/mL penicillin-streptomycin (Invitrogen, cat. 15140122), and 2.5% Matrigel (Corning Inc., cat. 354248) for the first three passages. The 857933-349-R-J2-PDC line was cultured in 6C/Colon 1B media, which includes advanced DMEM/F-12 (Thermo Fisher Scientific, cat. 12634028), 10 mM HEPES (Thermo Fisher Scientific, cat. 15630080), 1X GlutaMAX supplement (Thermo Fisher Scientific, cat. 35050061), 0.1 mg/mL primocin (InvivoGen, cat. ant-pm-2), 10% defined fetal bovine serum, heat inactivated (HyClone Laboratories Inc., cat. SH30070.03HI), 50% L-WRN conditioned media (ATCC, cat. CRL-3276), 1.25 mM N-Acetyl-L-cysteine (Sigma-Aldrich, cat. A9165), 10 mM nicotinamide (Sigma-Aldrich, cat. N0636), 1X B-27 supplement (Thermo Fisher Scientific, cat. 17504044), 1X N-2 supplement (Thermo Fisher Scientific, cat. 17502048), 10 microM Y-27632 dihydrochloride (Tocris Bioscience, cat. 1254), and 50 ng/mL human EGF recombinant protein (Thermo Fisher Scientific, cat. PHG0311). The 485176-168-R4-J1-PDC line was cultured in Panc media, which includes all 6C/Colon 1B media components plus 100 ng/mL human FGF-10 (Thermo Fisher Scientific, cat. 100-26), 500 nM SB-431542 (Selleckchem, cat. S1067), and gastrin (Tocris, cat. 3006).
[…]

[1] = second compound 0.0316 µM, first compound 0.0316 µM
[2] = second compound 0.0316 µM, first compound 0.316 µM
[3] = second compound 0.1 µM, first compound 0.0316 µM
[4] = second compound 0.1 µM, first compound 0.316 µM
[5] = second compound 0.316 µM, first compound 0.0316 µM
[6] = second compound 0.316 µM, first compound 0.316 µM
[7] = second compound 1 µM, first compound 0.0316 µM
[8] = second compound 1 µM, first compound 0.316 µM
[9] = second compound 3.16 µM, first compound 0.0316 µM
[10] = second compound 3.16 µM, first compound 0.316 µM
[11] = second compound 10 µM, first compound 0.0316 µM
[12] = second compound 10 µM, first compound 0.316 µM
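Further: spheroids exposed to compounds for one week before readout.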
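Wherever viability, T/C is given: percent viability relative to DMSO vehicle wells taken as 100%.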

SMILES: Cn1ncnc1[C@H]1c2n[nH]c(=O)c3cc(F)cc(c23)N[C@@H]1c1ccc(F)cc1 + CN(C)c1ccc(Nc2c3ccc(NC(=O)CCN4CCCC4)cc3nc3cc(NC(=O)CCN4CCCC4)ccc23)cc1
- IC50 (second compound 0.0316 µM): > 316 nM
- IC50 (second compound 0.1 µM): > 316 nM
- IC50 (second compound 0.316 µM): 205 nM
- IC50 (second compound 1 µM): 14.9 nM
- IC50 (second compound 3.16 µM): < 0.999 nM
- IC50 (second compound 10 µM): < 0.999 nM
- viability, T/C (second compound 0.0316 µM, first compound 0.000999 µM): 112%
- viability, T/C (second compound 0.0316 µM, first compound 0.00316 µM): 94%
- viability, T/C (second compound 0.0316 µM, first compound 0.00999 µM): 85%
- viability, T/C [1]: 74.7%
- viability, T/C (second compound 0.0316 µM, first compound 0.0999 µM): 67.4%
- viability, T/C [2]: 66.6%
- viability, T/C (second compound 0.1 µM, first compound 0.000999 µM): 115%
- viability, T/C (second compound 0.1 µM, first compound 0.00316 µM): 87.6%
- viability, T/C (second compound 0.1 µM, first compound 0.00999 µM): 90.3%
- viability, T/C [3]: 87.6%
- viability, T/C (second compound 0.1 µM, first compound 0.0999 µM): 81.9%
- viability, T/C [4]: 65.3%
- viability, T/C (second compound 0.316 µM, first compound 0.000999 µM): 68.9%
- viability, T/C (second compound 0.316 µM, first compound 0.00316 µM): 79.3%
- viability, T/C (second compound 0.316 µM, first compound 0.00999 µM): 72.8%
- viability, T/C [5]: 61.9%
- viability, T/C (second compound 0.316 µM, first compound 0.0999 µM): 60.5%
- viability, T/C [6]: 44.6%
- viability, T/C (second compound 1 µM, first compound 0.000999 µM): 54.3%
- viability, T/C (second compound 1 µM, first compound 0.00316 µM): 49.3%
- viability, T/C (second compound 1 µM, first compound 0.00999 µM): 62.1%
- viability, T/C [7]: 34.1%
- viability, T/C (second compound 1 µM, first compound 0.0999 µM): 38.2%
- viability, T/C [8]: 47.9%
- viability, T/C (second compound 3.16 µM, first compound 0.000999 µM): 35.7%
- viability, T/C (second compound 3.16 µM, first compound 0.00316 µM): 24%
- viability, T/C (second compound 3.16 µM, first compound 0.00999 µM): 24.9%
- viability, T/C [9]: 18.5%
- viability, T/C (second compound 3.16 µM, first compound 0.0999 µM): 28.6%
- viability, T/C [10]: 17.7%
- viability, T/C (second compound 10 µM, first compound 0.000999 µM): 9.05%
- viability, T/C (second compound 10 µM, first compound 0.00316 µM): 13.8%
- viability, T/C (second compound 10 µM, first compound 0.00999 µM): 8.55%
- viability, T/C [11]: 12.2%
- viability, T/C (second compound 10 µM, first compound 0.0999 µM): 5.71%
- viability, T/C [12]: 8.04%

SMILES: O=C(c1cc(Cc2n[nH]c(=O)c3ccccc23)ccc1F)N1CCN(C(=O)C2CC2)CC1 + CN(C)c1ccc(Nc2c3ccc(NC(=O)CCN4CCCC4)cc3nc3cc(NC(=O)CCN4CCCC4)ccc23)cc1
- IC50 (second compound 0.0316 µM): 8520 nM
- IC50 (second compound 0.1 µM): 8530 nM
- IC50 (second compound 0.316 µM): 9790 nM
- IC50 (second compound 1 µM): < 31.6 nM
- IC50 (second compound 3.16 µM): < 31.6 nM
- IC50 (second compound 10 µM): < 31.6 nM
- viability, T/C [1]: 107%
- viability, T/C (second compound 0.0316 µM, first compound 0.1 µM): 88.7%
- viability, T/C [2]: 93.2%
- viability, T/C (second compound 0.0316 µM, first compound 1 µM): 92.8%
- viability, T/C (second compound 0.0316 µM, first compound 3.16 µM): 84.9%
- viability, T/C (second compound 0.0316 µM, first compound 10 µM): 44.1%
- viability, T/C [3]: 111%
- viability, T/C (second compound 0.1 µM, first compound 0.1 µM): 93.4%
- viability, T/C [4]: 101%
- viability, T/C (second compound 0.1 µM, first compound 1 µM): 96.7%
- viability, T/C (second compound 0.1 µM, first compound 3.16 µM): 76.3%
- viability, T/C (second compound 0.1 µM, first compound 10 µM): 45.8%
- viability, T/C [5]: 84.4%
- viability, T/C (second compound 0.316 µM, first compound 0.1 µM): 83.3%
- viability, T/C [6]: 83.8%
- viability, T/C (second compound 0.316 µM, first compound 1 µM): 67.6%
- viability, T/C (second compound 0.316 µM, first compound 3.16 µM): 73.5%
- viability, T/C (second compound 0.316 µM, first compound 10 µM): 48%
- viability, T/C [7]: 55%
- viability, T/C (second compound 1 µM, first compound 0.1 µM): 36.5%
- viability, T/C [8]: 44.2%
- viability, T/C (second compound 1 µM, first compound 1 µM): 48.1%
- viability, T/C (second compound 1 µM, first compound 3.16 µM): 52.3%
- viability, T/C (second compound 1 µM, first compound 10 µM): 45.8%
- viability, T/C [9]: 34.7%
- viability, T/C (second compound 3.16 µM, first compound 0.1 µM): 27.9%
- viability, T/C [10]: 22.8%
- viability, T/C (second compound 3.16 µM, first compound 1 µM): 21.4%
- viability, T/C (second compound 3.16 µM, first compound 3.16 µM): 16.6%
- viability, T/C (second compound 3.16 µM, first compound 10 µM): 15.9%
- viability, T/C [11]: 5%
- viability, T/C (second compound 10 µM, first compound 0.1 µM): 12.6%
- viability, T/C [12]: 14.9%
- viability, T/C (second compound 10 µM, first compound 1 µM): 11.7%
- viability, T/C (second compound 10 µM, first compound 3.16 µM): 31.9%
- viability, T/C (second compound 10 µM, first compound 10 µM): 6.71%

Reference: PubChem BioAssay AID2060497 (Molecular Pharmacology Branch, DTP, NCI, 2025)
